# Data from US9284321B2, “Piperazino[1,2-a]indol-1-ones and [1,4]diazepino[1,2-a]indol-1-one” (Hoffmann-La Roche Inc., priority 2012, dated 2016).
# Tests used:
# [1] = tested on: human embryonic stem cell derived neural stem cells (NSCs); experiment: Neural Stem Cell Proliferation Assay (neurogenesis assay, ATP levels by CellTiterGlo); format: cell-based; settings: 96 h, compound concentration at which 150% activity of control (100%) is reached, NSC proliferation by ATP level after 4 days incubation, dose response 8 μM to 8 nM
# Summary of the method: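 Read-out is CellTiterGlo ATP luminescence after 4-day culture (37 °C, 5% CO2) of dual-SMAD-derived human ESC NSCs, dosed 4 h post-seeding at 8 μM to 8 nM (11 points, 2-fold). EC150 marks the concentration reaching 150% of the media-only control (0.25% DMSO).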
SMILES,EC (150% of control) [1],melting point
"Cc1cc(-c2cc(C#N)cc3cc4n(c23)CCCNC4=O)ccc1F [Example 235, 7-(4-Fluoro-3-methylphenyl)-1-oxo-2,3,4,5-tetrahydro-[1,4]diazepino[1,2-a]indole-9-carbonitrile]",0.77 µM,223.5 °C
"N#Cc1cc(-c2ccc(Cl)cc2Cl)c2c(c1)cc1n2CCCNC1=O [Example 236, 7-(2,4-Dichlorophenyl)-1-oxo-2,3,4,5-tetrahydro-[1,4]diazepino[1,2-a]indole-9-carbonitrile]",0.13 µM,253 °C
"N#Cc1ccc(-c2cc(C#N)cc3cc4n(c23)CCCNC4=O)cc1 [Example 237, 7-(4-Cyanophenyl)-1-oxo-2,3,4,5-tetrahydro-[1,4]diazepino[1,2-a]indole-9-carbonitrile]",0.22 µM,257 °C
"N#Cc1cc(-c2cc(F)cc(F)c2)c2c(c1)cc1n2CCCNC1=O [Example 238, 7-(3,5-Difluorophenyl)-1-oxo-2,3,4,5-tetrahydro-[1,4]diazepino[1,2-a]indole-9-carbonitrile]",1 µM,211 °C
"N#Cc1cc(-c2cccc(F)c2)c2c(c1)cc1n2CCCNC1=O [Example 239, 7-(3-Fluorophenyl)-1-oxo-2,3,4,5-tetrahydro-[1,4]diazepino[1,2-a]indole-9-carbonitrile]",0.61 µM,210.5 °C
"Cc1c2n(c3c(-c4cc(F)c(F)c(F)c4)cc(C#N)cc13)CCNC2=O [Example 240, 10-Methyl-1-oxo-6-(3,4,5-trifluorophenyl)-3,4-dihydro-2H-pyrazino[1,2-a]indole-8-carbonitrile]",0.11 µM,253 °C
"Cc1c2n(c3c(-c4ccccc4)cc(C#N)cc13)CCNC2=O [Example 241, 10-Methyl-1-oxo-6-phenyl-3,4-dihydro-2H-pyrazino[1,2-a]indole-8-carbonitrile]",0.062 µM,253 °C
"Cc1c2n(c3c(-c4ccc(N)nc4)cc(C#N)cc13)CCNC2=O [Example 242, 6-(6-Aminopyridin-3-yl)-10-methyl-1-oxo-3,4-dihydro-2H-pyrazino[1,2-a]indole-8-carbonitrile]",0.68 µM,332 °C
"Cc1c2n(c3c(-c4ccncc4)cc(C#N)cc13)CCNC2=O [Example 243, 10-Methyl-1-oxo-6-pyridin-4-yl-3,4-dihydro-2H-pyrazino[1,2-a]indole-8-carbonitrile]",0.09 µM,307 °C
"Cc1c2n(c3c(-c4cc(F)c(F)c(F)c4)cc(C#N)cc13)CCCNC2=O [Example 244, 11-Methyl-1-oxo-7-(3,4,5-trifluorophenyl)-2,3,4,5-tetrahydro-[1,4]diazepino[1,2-a]indole-9-carbonitrile]",0.47 µM,306 °C
"Cc1c2n(c3c(-c4ccccc4)cc(C#N)cc13)CCCNC2=O [Example 245, 11-Methyl-1-oxo-7-phenyl-2,3,4,5-tetrahydro-[1,4]diazepino[1,2-a]indole-9-carbonitrile]",0.095 µM,258 °C
"Cc1c2n(c3c(-c4ccc(F)c(F)c4F)cc(C#N)cc13)CCNC2=O [Example 246, 10-Methyl-1-oxo-6-(2,3,4-trifluorophenyl)-3,4-dihydro-2H-pyrazino[1,2-a]indole-8-carbonitrile]",0.084 µM,238 °C
"COc1ccc(-c2cc(C#N)cc3c(C)c4n(c23)CCNC4=O)cc1 [Example 247, 6-(4-Methoxyphenyl)-10-methyl-1-oxo-3,4-dihydro-2H-pyrazino[1,2-a]indole-8-carbonitrile]",0.03 µM,285 °C
"N#Cc1cc(-c2cc(F)c(F)c(F)c2)c2c(c1)cc1n2CCCNC1=O [Example 248, 1-Oxo-7-(3,4,5-trifluorophenyl)-2,3,4,5-tetrahydro-[1,4]diazepino[1,2-a]indole-9-carbonitrile]",0.62 µM,248.5 °C
"N#Cc1cc(-c2ccc(Cl)c(Cl)c2)c2c(c1)cc1n2CCCNC1=O [Example 249, 7-(3,4-Dichlorophenyl)-1-oxo-2,3,4,5-tetrahydro-[1,4]diazepino[1,2-a]indole-9-carbonitrile]",0.31 µM,217.5 °C
"Cc1c2n(c3c(-c4ccncc4)cc(C#N)cc13)CCCNC2=O [Example 250, 11-Methyl-1-oxo-7-pyridin-4-yl-2,3,4,5-tetrahydro-[1,4]diazepino[1,2-a]indole-9-carbonitrile]",0.15 µM,285 °C
"Cc1c2n(c3c(-c4ccc(N)nc4)cc(C#N)cc13)CCCNC2=O [Example 251, 7-(6-Aminopyridin-3-yl)-11-methyl-1-oxo-2,3,4,5-tetrahydro-[1,4]diazepino[1,2-a]indole-9-carbonitrile]",0.29 µM,306 °C
"N#Cc1cc(-c2ccc(Cl)c(F)c2)c2c(c1)cc1n2CCCNC1=O [Example 252, 7-(4-Chloro-3-fluorophenyl)-1-oxo-2,3,4,5-tetrahydro-[1,4]diazepino[1,2-a]indole-9-carbonitrile]",1.38 µM,221.5 °C
"Cc1ccc(-c2cc(C#N)cc3cc4n(c23)CCCNC4=O)cc1F [Example 253, 7-(3-Fluoro-4-methylphenyl)-1-oxo-2,3,4,5-tetrahydro-[1,4]diazepino[1,2-a]indole-9-carbonitrile]",0.65 µM,250.5 °C
"N#Cc1cc(-c2ccc(OC(F)(F)F)cc2)c2c(c1)cc1n2CCCNC1=O [Example 255, 1-Oxo-7-[4-(trifluoromethoxy)phenyl]-2,3,4,5-tetrahydro-[1,4]diazepino[1,2-a]indole-9-carbonitrile]",0.3 µM,230.5 °C
"CS(=O)(=O)c1ccc(-c2cc(C#N)cc3cc4n(c23)CCCNC4=O)cc1 [Example 256, 7-(4-Methylsulfonylphenyl)-1-oxo-2,3,4,5-tetrahydro-[1,4]diazepino[1,2-a]indole-9-carbonitrile]",1.42 µM,305.5 °C
"N#Cc1cc(-c2ccnc(Cl)c2)c2c(c1)cc1n2CCCNC1=O [Example 257, 7-(2-Chloropyridin-4-yl)-1-oxo-2,3,4,5-tetrahydro-[1,4]diazepino[1,2-a]indole-9-carbonitrile]",0.54 µM,286.5 °C
"Cc1ccc(-c2cc(C#N)cc3c(C)c4n(c23)CCNC4=O)cc1 [Example 258, 10-Methyl-6-(4-methylphenyl)-1-oxo-3,4-dihydro-2H-pyrazino[1,2-a]indole-8-carbonitrile]",0.035 µM,277 °C
"Cc1c2n(c3c(-c4cccc(F)c4)cc(C#N)cc13)CCNC2=O [Example 259, 6-(3-Fluorophenyl)-10-methyl-1-oxo-3,4-dihydro-2H-pyrazino[1,2-a]indole-8-carbonitrile]",0.06 µM,226 °C
"Cc1c2n(c3c(-c4ccc(Cl)c(Cl)c4)cc(C#N)cc13)CCNC2=O [Example 260, 6-(3,4-Dichlorophenyl)-10-methyl-1-oxo-3,4-dihydro-2H-pyrazino[1,2-a]indole-8-carbonitrile]",0.12 µM,245 °C
